What was measured:
Cavia porcellus [1] = assay: Compound was evaluated in vivo for antigen induced airway obstruction in guinea pig (OA) at 1.0 hour after oral administration; type: functional
[2] = Compound was evaluated for terminal half life in monkey; type: ADME; details: cercopithecidae, in vivo
Rattus norvegicus = species: Rattus norvegicus; assay: Compound was evaluated for Hepatic clearance in rat; type: ADME, organism-based, Liver; details: in vivo
[3] = Compound was evaluated for Hepatic clearance in monkey; type: ADME, organism-based, Liver; details: cercopithecidae, in vivo
[4] = Oral bioavailability in monkey; type: ADME, organism-based; details: cercopithecidae, in vivo
[5] = Oral bioavailability in rat; type: ADME, organism-based; details: in vivo
[6] = Compound was evaluated for terminal half life in rat; type: ADME, organism-based; details: in vivo
[7] = target: T1, Cysteinyl leukotriene receptor 1 (Cavia porcellus, UniProt Q2NNR5); assay: In vitro binding of Cysteinyl leukotriene receptor 1 to guinea pig lung membranes; type: tissue-based, Membrane
T1 sequence (Q2NNR5 whole entry): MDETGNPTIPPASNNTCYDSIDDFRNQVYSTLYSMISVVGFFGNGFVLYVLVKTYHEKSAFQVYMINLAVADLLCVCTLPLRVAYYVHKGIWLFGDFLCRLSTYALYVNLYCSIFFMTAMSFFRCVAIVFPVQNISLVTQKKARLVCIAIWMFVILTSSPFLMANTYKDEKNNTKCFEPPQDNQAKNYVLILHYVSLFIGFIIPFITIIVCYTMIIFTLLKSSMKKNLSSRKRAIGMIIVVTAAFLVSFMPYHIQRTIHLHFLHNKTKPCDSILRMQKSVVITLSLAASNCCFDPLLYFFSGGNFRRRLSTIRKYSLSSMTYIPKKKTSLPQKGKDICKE

Cavia porcellus [8] = assay: Compound was evaluated in vivo for cysLT1 receptor induced airway obstruction in guinea pig (OA) at 1.0 hour after oral administration; type: functional
U-937 = assay: In vitro blocking of extracellular calcium mobilization in human U937 cells; type: functional, cell-based
Cavia porcellus [9] = assay: Compound was evaluated in vivo for cysLT1 receptor induced airway obstruction in guinea pig (OA) at 1.0 hour after oral administration.; type: functional
Cavia porcellus [10] = assay: Compound was evaluated in vivo for antigen induced airway obstruction in guinea pig (OA) at 2.0 hour after oral administration.; type: functional
Cavia porcellus [11] = assay: Compound was evaluated in vivo for cysLT1 receptor induced airway obstruction in guinea pig (OA) at 2.0 hour after oral administration.; type: functional

half-life [2] [h]	Clp (Rattus norvegicus) [mL/min/kg]	Clp [3] [mL/min/kg]	bioavailability [4] [%]	bioavailability [5] [%]	half-life [6] [h]	Ki [7] [nM]	IC50 (U-937) [nM]	SMILES	ED50 (Cavia porcellus [1]) [mg/kg]	ED50 (Cavia porcellus [8]) [mg/kg]	ED50 (Cavia porcellus [9]) [mg/kg]	ED50 (Cavia porcellus [10]) [mg/kg]	ED50 (Cavia porcellus [11]) [mg/kg]
								O=C(Nc1cccc2c(=O)cc(-c3nnn[nH]3)oc12)c1ccc(OCCCCc2ccccc2)cc1	1.5				
2.1	8.9	6.5	100	53	0.8	0.6	0.7	COc1ccc(NS(=O)(=O)C(F)(F)F)cc1C[C@@H]1COc2ccc(OCc3ccc4ccc(Cl)cc4n3)cc2[C@@H]1O	0.46	0.12			
9.4	8.3	4.2	72	46	8.8	0.4	0.3	COc1ccc(NS(=O)(=O)C(F)(F)F)cc1C[C@@H]1COc2ccc(OCc3nc4cc(F)c(F)cc4s3)cc2[C@@H]1O	0.52		0.08		
								COc1cc(C(=O)NS(=O)(=O)c2ccccc2C)ccc1Cc1cn(C)c2ccc(NC(=O)OC3CCCC3)cc12 [ZAFIRLUKAST]				0.9	0.52
